Measurements from patent US9757428B2, “Designed peptides for tight junction barrier modulation” (University of Rochester, priority 2013, dated 2017).
Where no end group is shown, it is not given here.

How the values were obtained:
16HBE TJs [1] = test: Transepithelial electrical resistance (TER) of 16HBE tight junction barrier, peptides applied apically; type: cell-based, Human; details: for effect of unrelated peptides on TER: 2-12 μM; for drop in TER: 2.4 μM peptide; for recovery of barrier function (TER) after peptide removal: 0.024 to 12 μM, washout and further 24 h incubation; for barrier disruption by labeled peptides, measured by decreased TER: representative experiment (n=2)
Protocol: Before use, peptide fibrils were prepared in sterile, filtered phosphate buffered saline containing 0.12% Pluronic F-127® by sonication at 55° C. for 20 minutes. Peptide concentrations were determined by BCA assay (Pierce). 20× peptide stocks were prepared in 0.12% pluronic F-127/PBS, then diluted 20× into phosphate buffer, PBS or DMEM containing 1% heat-inactivated fetal bovine serum and incubated at 37° C. for 18-24 hours before cell exposure or biophysical analysis, maintaining a constant surfactant concentration (0.006% Pluoronic® F127) for vehicle and peptide samples.
(§1) Human bronchial epithelial cells (16HBE) were grown on collagen-coated polystyrene in DMEM containing 10% heat inactivated fetal bovine serum, 10 mM HEPES, penicillin, streptomycin, and amphotericin with fresh media every 2-3 days. Cells were plated at the indicated density and grown for the indicated period. Peptides were diluted 20× into DMEM (Gibco #31053 containing 2 mM L-glutamine but lacking phenol red) containing 1% heat-inactivated fetal bovine serum and incubated at 37° C. for 18 hours before exposure. Pluronic F-127 concentrations (0.006% in cell culture media) were consistent between vehicle controls and peptide-containing samples. Cells were acclimated to the same media for 18 hours before peptide exposure.
(§2) For transepithelial electrical resistance (TER) and permeability experiments, the results of which are shown in FIGS. 4A-4B, respectively, cells were plated at a density of 75,000 per 0.33 cm^2 transwell (Corning TW, […], polyester) and grown for 5-6 days before acclimation/peptide exposure. TER measurements were taken with chopstick electrodes using a World Precision Instruments voltohmeter, and are expressed as the measured (cellular resistance—resistance of a TW insert with no cells)/surface area of the TW insert. TER was measured before peptide exposure (time=0) and at the indicated time points thereafter. After the 24 hour measurement, a control TW was lysed with 1% Triton X-100. For permeability flux assay, 1/10 volume of 0.2% sodium fluorescein or a mixture of 40 kD FITC-dextran (600 μg/mL final apical concentration) and Alexafluor®-568 labeled Synagis monoclonal antibody was added to the apical chamber and cells were incubated at 37° C. for 30 minutes or 18 hours. Synagis monoclonal antibody was labeled with Alexafluor®-568-succinimidyl ester according to the manufacturer's instructions, unreacted fluorophor removed using centrifugal filtration, and labeled antibody resuspended in PBS containing FITC-labeled 40 kD dextran. Fluorescence in the basolateral media was read in a Tecan M1000 fluorescence plate reader using Greiner μ-clear bottom 384-well plates (λex=494 nm and λem=512 nm for fluorescein and FITC-dextran and λex=578 nm and λem=605 nm for Alexafluor®-568 using a 10 nm slit width). Error is presented as the standard error of the mean, and significance relative to the vehicle control indicated where P<0.05 using a two-tailed t-test. For TER and fluorescein permeability experiments, n=8. For barrier recovery after peptide washout and FD-40 and Alexafluor®-labeled monoclonal antibody (“AF-mAb”) permeability, n=4.
Human bronchial epithelial cells (16HBE) were used to model TJ barrier function. 16HBE cells develop a TJ barrier (transepithelial electrical resistance, TER=800-1500 Ω*cm^2 in 10% heat-inactivated calf serum) that persists for 14 days. 16HBE cells serve as a more robust epithelial TJ barrier model than primary human keratinocytes, which achieve varying degrees of terminal differentiation (e.g. TJ barrier function) and this declines within 24 hours. In the low serum media used for peptide exposure, 16HBE cells achieved 350-500 Ω*cm^2 TER which was stable for 3-4 days. Cell surface expression of Cldn1, Cldn4, Ocln, and ZO-1 were consistently observed by immunofluorescence staining (FIGS. 2A-2B).

[2] = for comparison; cited from earlier work
[3] = tested on: Cldn1 and Ocln localization in 16HBE cultures; test: Immunofluorescence of TJ proteins (Cldn1, Ocln) and labeled peptides in 16HBE cultures; type: cell-based, Human; details: for Cldn1 and Ocln localization: 12 hours after exposure; for co-localization of labeled peptide with endogenous Cldn1: 2.4 μM, 4 hours exposure
Protocol: For immunohistochemical labeling, cells were plated at a density of 1.2×10^5 cells per 1.2 cm^2 coverslip in a 12-well plate and cultured in DMEM containing 10% heat-inactivated fetal bovine serum for 4-5 days. One day before peptide exposure, media was changed to DMEM/1% serum. Cells were exposed to peptide for 4 or 12 hours at 37° C. Cover slips were washed three times with PBS containing calcium (Gibco), fixed in cold methanol and blocked with 1% bovine serum albumin before staining Fluorophor was conjugated to propargyl-glycine labeled peptides using a ClickIt EdU kit according to the manufacturer's instructions (omitting cell exposure to EdU). For immunofluorescent staining, cells were incubated for one hour with primary antibodies (1:500 polyclonal anti-claudin 1 antibody and 1:400 monoclonal anti-occludin), washed with PBS and stained with Alexafluor®-488 anti-rabbit and Alexafluor®-568 anti-mouse secondary antibodies (1:1000). […] Coverslips were mounted in Vectastain containing DAPI and imaged on an Olympus BX60 fluorescence microscope. Cldn1 and Ocln images were taken using SPOT software with no further digital manipulation.

16HBE TJs [4] = test: Permeability flux assay (sodium fluorescein, FITC-dextran FD-40, labeled Synagis mAb) across 16HBE cultures; type: cell-based, Human; details: for increase in FITC-dextran 40 kDa (FD-40) permeability / increase in fluorescein (0.4 kDa) permeability: 24 hours exposure, relative to vehicle
Protocol: as §1, §2

16HBE cells = test: WST1 cytotoxicity assay in 16HBE cells; type: cell-based, Human; details: for WST1 metabolism (cytotoxicity) of equilibrated peptides: 16HBE sub-confluent, 0.024-12 μM, 1, 4, 12 or 24 hour exposure; for concentration of freshly diluted peptide at which cytotoxicity was observed (WST1): 16HBE, stocks diluted and added without incubation, 12 h exposure
Protocol: For cytotoxicity measurements, cells were plated with a density of 7,500 per well in a 96-well plate and grown for one day before acclimation in DMEM containing 1% heat-inactivated fetal bovine serum. Cells were exposed to vehicle or peptide for 4, 12 or 24 hours. Control cells were lysed with 1% Triton X-100 for 15 minutes as a negative control. 10× WST1 stock (Clontech) was added to each well, and cells incubated for 12 minutes at 37° C. Media was removed and WST1 absorbance immediately read on a Perkin Elmer UV/Vis plate reader (WST1 A450−background A620). Error is presented as the standard error of the mean, and significance relative to the untreated control indicated (P<0.05). For cytotoxicity experiments, n=4. Representative data is presented.

[5] = tested on: influenza hemagglutinin (HA); test: Intranasal immunization with influenza hemagglutinin (HA); details: mice; for serum antibody titers to HA: day 18, 28 and 35; for HA-specific antibodies (IgG and IgA) in bronchial lavage: day 48
Protocol: Immunization experiments with influenza hemagglutinin were carried out as follows. Mice (4 mice per group) were treated in the nasal cavity with vehicle alone (0.006% Pluronic F127 in saline), vehicle plus influenza hemagglutinin (HA), or vehicle plus HA plus a permeabilizing agent (peptides 1A or 2A, or semen-derived enhancer of virus infection (SEVI)). Antibody titers to HA in serum were assessed at day 18, 28, and 35 after treatment, and HA-specific IgG and IgA were determined in bronchial lavage at day 48 post treatment.

nasal cavity = test: Luciferase permeability experiment in mouse nasal cavity; type: in vivo; details: mice, intranasal peptide, luciferase applied after 12 or 24 hours
Protocol: Luciferase permeability experiments were carried out as follows. […] After 12 or 24 hours, a solution of 10 micrograms luciferase was applied. Mice were then imaged at various time points to determine the amount of luciferase remaining in the nasal cavity.

[6] = tested on: Caco-2, HEK-293, and rat perineural TJ barriers; details: Caco-2, HEK-293, rat perineural in vivo; cited from earlier work
[7] = tested on: T84 (transplantable human carcinoma) cells; details: cited from earlier work

For “Aβ40: unrelated peptide tested in the same concentration range [reference compound]”, which “effect of unrelated peptides on TER” value (16HBE TJs [1]; 16HBE) is on record?
The value was “did not decrease TER”.

With “Aβ42: Amyloid Beta-Peptide 1-42 [reference compound]” as the substance, how does the TJ disruption (16HBE TJs [1]; 2.4 μM) read?
The TJ disruption was “disrupt TJs, but to a lesser extent than peptides 1a and 2a”.

What about the “critical concentration (Cr)” value [2] of the same substance?
The value was “about 1 μM”.

Which “effect of unrelated peptides on TER” value (16HBE TJs [1]; 16HBE) does the source give for “FKFEFKFE-NH2 [(FKFE)2, unrelated peptide tested in the same concentration range, reference compound]” here?
Its value is “did not decrease TER”.

What does the source list for “H-SILTGVSTLDQSLKQLSNFSQAVSTQSSR-NH2 [Peptide 2a]”?
drop in TER (16HBE TJs [1]; 16HBE, 24 hours): 80±2.4%; decrease in TER (16HBE TJs [1]; 16HBE, 12 μM peptide, 24 hours): 92±1.6%; recovery of barrier function (TER) after peptide removal (16HBE TJs [1]; 16HBE): barrier function recovers; Cldn1 and Ocln localization [3]: disturbed; enhancement of labeled therapeutic antibody (Synagis, 168 kD) penetration (16HBE TJs [4]; 2.4 μM peptide): 4.9±0.4 fold; increase in FITC-dextran 40 kDa (FD-40) permeability (16HBE TJs [4]; 2.4 μM peptide): 25.3±1.6 fold; increase in fluorescein (0.4 kDa) permeability (16HBE TJs [4]; 2.4 μM peptide): 5.6±0.4 fold; enhancement of labeled therapeutic antibody (Synagis, 168 kD) penetration (16HBE TJs [4]; 12 μM peptide): 5.6±0.9 fold; increase in FITC-dextran 40 kDa (FD-40) permeability (16HBE TJs [4]; 12 μM peptide): 30.5±3.0 fold; increase in fluorescein (0.4 kDa) permeability (16HBE TJs [4]; 12 μM peptide): 16.4±2.2 fold; WST1 metabolism (cytotoxicity) of equilibrated peptides (16HBE cells): No alterations in WST1 metabolism; concentration of freshly diluted peptide at which cytotoxicity was observed (WST1) (16HBE cells): 200 nM; serum antibody titers to HA [5]: trend of enhancement; HA-specific antibodies (IgG and IgA) in bronchial lavage [5]: trend of enhancement

Which results are given for “H-SSVSQSTGQIQSKVFDSLLNLSSTLQATR-NH2 [Peptide 1a]”?
drop in TER (16HBE TJs [1]; 16HBE, 24 hours): 65.9±6.9%; time to statistically significant (P<0.05) decrease in TER (16HBE TJs [1]; 16HBE, 12 μM peptide): ≤ 8 h; recovery of barrier function (TER) after peptide removal (16HBE TJs [1]; 16HBE): barrier function recovers; lowest concentration giving a statistically significant (P<0.05) decrease in TER (16HBE TJs [1]; 16HBE, by 24 hours): 240 nM; Cldn1 and Ocln localization [3]: disturbed; luciferase lost from the nasal cavity (nasal cavity): trend of higher amounts of luciferase lost from the nasal cavity; enhancement of labeled therapeutic antibody (Synagis, 168 kD) penetration (16HBE TJs [4]; 2.4 μM peptide): 2.5±0.2 fold; increase in FITC-dextran 40 kDa (FD-40) permeability (16HBE TJs [4]; 2.4 μM peptide): 11.2±0.9 fold; increase in fluorescein (0.4 kDa) permeability (16HBE TJs [4]; 2.4 μM peptide): 4.1±0.9 fold; enhancement of labeled therapeutic antibody (Synagis, 168 kD) penetration (16HBE TJs [4]; 12 μM peptide): 3.2±0.4 fold; increase in FITC-dextran 40 kDa (FD-40) permeability (16HBE TJs [4]; 12 μM peptide): 16.8±1.9 fold; increase in fluorescein (0.4 kDa) permeability (16HBE TJs [4]; 12 μM peptide): 6.7±1.3 fold; WST1 metabolism (cytotoxicity) of equilibrated peptides (16HBE cells): No alterations in WST1 metabolism; concentration of freshly diluted peptide at which cytotoxicity was observed (WST1) (16HBE cells): 1200 nM; serum antibody titers to HA [5]: trend of enhancement; HA-specific antibodies (IgG and IgA) in bronchial lavage [5]: trend of enhancement

For “Rat Cldn1 (53-81, C54,64S) peptide: rat claudin-1 peptide with Cys to Ser, of Zwanziger et al. (SSVSQSTGQIQSKVFDSLLNLNSTLQATR; UniProt P56745 53-81, looked up, variant C54S C64S)”, which “concentration disrupting TJ barriers” value [6] is on record?
Its value is 200 to 300 µM.

Which “barrier disruption by labeled peptides, measured by decreased TER” value (16HBE TJs [1]; 16HBE) does the source give for “SILTGVSTLDQSLKQLSNFSQAVSTQSSR [Peptide 2b, labeled scrambled peptide 2 with N-terminal biotin-N-propargyl glycine tag]” here?
Its value is “cause disruption of barrier”.

And the “co-localization of labeled peptide with endogenous Cldn1” value [3]?
Its value is “co-localize with endogenous Cldn1”.

Which “barrier disruption by labeled peptides, measured by decreased TER” value (16HBE TJs [1]; 16HBE) does the source give for “SSVSQSTGQIQSKVFDSLLNLSSTLQATR [Peptide 1b, labeled peptide 1 with N-terminal biotin-N-propargyl glycine tag]” here?
The value was “cause disruption of barrier”.

What about the “co-localization of labeled peptide with endogenous Cldn1” value [3] of the same substance?
Its value is “co-localize with endogenous Cldn1”.

Which “concentration able to disrupt intact TJs” value [7] does the source give for “rat Cldn1 (53-80) peptide: rat claudin-1 extracellular loop peptide of Mrsny et al. (SCVSQSTGQIQCKVFDSLLNLNSTLQAT; UniProt P56745 53-80, looked up, fragment)” here?
The value was 200 µM.

And the “concentration shown to inhibit calcium-induced TJ formation” value [7]?
The value was 25 µM.
